Assay [1] concerns the target T1, NLuc::LmxCLK1 (Leishmania mexicana, UniProt E9AMP2). In words: In vitro BRET with purified NLuc::LmxCLK1. Type of assay: binding. The procedure:
(§1) in vitro BRET used purified NLuc-LmxCLK1 in Kinase Buffer (50 mM HEPES, 1 mM EGTA, 10 mM MgCl^2, 2 mM DTT and 0.01% Tween-20) aliquoted into 96-well plates (Greiner #655904). In cell BRET assays used engineered L. mexicana (promastigotes or intramacrophage amastigotes) expressing NLuc-LmxCLK1 in cell media aliquoted into 96-well plates (Greiner, #655083). For tracer titration experiments, BRET probes were serially diluted from 100% DMSO stocks – first in 100% DMSO to 100x final assay concentration, and then in Tracer Dilution Buffer (TDB - 12.5 mM HEPES, pH 7.5; 31.25% PEG 400) to 20x the final assay concentration. Serially diluted probes (5 µL) were added to 85 µL of cells in culture media or 85 µL of purified protein. Final well volumes were adjusted to 100 µL with sterile Opti-MEM™ I Reduced Serum Medium (Thermo-Scientific) – for wells containing cells; or Kinase Buffer - for wells containing purified protein. For tracer displacement assays, samples were prepared as above, but final volume was brought to 100 µL by addition of vehicle or serially-diluted test compounds. Final DMSO concentration in these assays was 1%. Plates were incubated for 30 min at 25 °C (purified protein and promastigotes) or 34 °C (intramacrophage amastigotes), and 50 µL of Promega cocktail containing furimazine and NLuc extracellular inhibitor (catalog #N2161) were added to each well. Light emissions at 460+10 nm (BRET donor) and at 610+20 nm (BRET acceptor) were sequentially recorded (integration time = 0.5 s, gain = 3600) using a luminometer (BMG LABTECH Clariostar or Biotek Synergy HT). BRET values are reported in milli-BRET (mBRET) units (mBU), obtained by dividing the acceptor luminescence by the donor luminescence and multiplying the result by a factor of 1,000. BRET values were converted to blank-corrected probe occupancies (%) according to equation [1]: (1) Probeoccupancy(%)=X−Z/Y−Z×100 where X = mBRET value in the presence of the test compound and the probe, Y = mBRET value in the presence of probe only, and Z = mBRET value in the absence of probe and test compound.
To determine apparent dissociation constants from saturation binding curves, mBRET values were plotted as a function of probe concentration, and probe affinity values (KD) were determined using the hyperbolic dose-response equation for binding to a single site available in GraphPad Prism (v. 9.1.0).
(BRET reads energy transfer from a luciferase to a nearby fluorophore.)

Assay [2] has as its system L. mexicana promastigotes. The experiment in a line: Promastigote viability (Alamar Blue/resazurin). It is filed as cell-based. The settings on record: Leishmania mexicana; 48 h compound exposure; read-out: EC50 promastigote viability. How it is done: Next, we evaluated GZD824 ability to reduce the viability of L. mexicana promastigotes by monitoring the reduction of resazurin (Alamar Blue).[31]
(§2) L. mexicana (strain MNYC/BZ/62/M379) promastigotes were cultivated in medium 199 (M199) (Earle’s Salts - Gibco) supplemented with 10% (v/v) heat-inactivated fetal calf serum (HIFCS – Cultilab) and 1% Penicillin/Streptomycin solution (Sigma-Aldrich) at 26 °C. Phenotypic drug response assays in null mutant and point-mutation mutant lines were performed in HOMEM supplemented with 10% (v/v) heat-inactivated fetal calf serum (HIFCS – Gibco). THP-1 monocytes were differentiated in adherent macrophages with 50 ng of PMA for 72 h at 37 °C and 5% CO2 before infection with stationary phase promastigotes (ratio 10 promastigotes:1 macrophage) for 6 h, followed by washing to remove non-internalized Leishmania. Infected macrophages were incubated at 34 °C and 5% CO2 for 48 h in RPMI (Gibco) supplemented with 10% HIFCS and 1% Penicillin/Streptomycin solution.
For evaluation of drug effect on promastigote and uninfected macrophage viability, cells were cultivated in the presence of test compounds for 24 h and incubated with 10% AlamarBlue™ Cell Viability Reagent (ThermoFisher) for 24 h before measuring fluorescence at λex 540 nm/λem 590 nm. Untreated cells (1% DMSO) were set as 100 % viable cells. Intracellular amastigotes were treated with compounds for 48 h. Slides with paraformaldehyde-fixed and DAPI-stained cells were imaged on a Zeiss AxioImager microscope – at least 200 macrophages per drug concentration and DMSO control. Experiments were performed in duplicate. The total number of amastigotes was normalized by the number of macrophages counted. For EC50 determination, the data was fitted to the sigmoidal dose-response (variable slope) equation in GraphPad Prism (v.9.1.0).
(In general: Resazurin is reduced to fluorescent resorufin, in cell work by metabolically active cells.)

A further assay concerns the target T2, LmxCLK1 (Leishmania mexicana, UniProt E9AMP2).
T2 sequence (E9AMP2 1-422): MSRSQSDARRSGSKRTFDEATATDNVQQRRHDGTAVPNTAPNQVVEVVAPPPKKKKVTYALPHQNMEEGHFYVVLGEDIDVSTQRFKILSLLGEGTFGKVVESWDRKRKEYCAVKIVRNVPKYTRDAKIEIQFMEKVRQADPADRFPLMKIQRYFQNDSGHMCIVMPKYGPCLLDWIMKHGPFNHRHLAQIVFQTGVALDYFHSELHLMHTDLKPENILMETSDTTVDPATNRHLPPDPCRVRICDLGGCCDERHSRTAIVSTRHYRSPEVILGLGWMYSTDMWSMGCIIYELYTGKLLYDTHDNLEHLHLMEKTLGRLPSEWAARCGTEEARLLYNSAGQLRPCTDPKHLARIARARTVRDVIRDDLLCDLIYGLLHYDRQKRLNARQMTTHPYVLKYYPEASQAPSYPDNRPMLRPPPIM
The experiment in a line: HTRF (TR-FRET) enzymatic inhibition assay. It is filed as biochemical. To be noted: IC50 enzymatic inhibition of LmxCLK1, purified LmxCLK1, 30-min pre-incubation, 66 µM ATP. How it is done:
The enzymatic activity of full-length LmxCLK1 was monitored using a homogenous time-resolved fluorescence (HTRF)-based assay (HTRF KinEASE-STK S3 kit, Cisbio - catalog #62ST3PEC). For IC50 value determination, the data from two independent experiments performed in duplicate were fitted to the sigmoidal dose-response (variable slope) equation available in GraphPad Prism (v. 9.1.0). Detailed information for IC50 determination can be found in the Supplementary Information. […]
min at 4 °C. The supernatants were loaded onto an immobilized metal affinity chromatography (IMAC) […]
column (5 mL HisTrap FF Crude, GE Healthcare) and washed in Binding Buffer containing 30 mM imidazole.
Proteins were eluted in Binding Buffer with 300 mM imidazole. To remove the N-terminal 6xHis-tag […]
introduced during cloning (see above), proteins were incubated with TEV protease during dialysis […]
overnight at 4 °C into Gel Filtration Buffer (20 mM HEPES, 500 mM NaCl, 5% glycerol, 0.5 mM TCEP).
Recombinant proteins were further purified using reverse affinity chromatography on Ni-Sepharose […]
followed by gel filtration (Superdex 200 16/60, GE Healthcare), and concentrated using 10 kDa molecular […]
weight cut-off centrifugal concentrators (Millipore). LmxCLK1 (CQMED clone ID LmxCLK1-cb001) and […]
NLuc-LmxCLK1 (CQMED clone ID LmxCLK1-cb021) proteins were stored at -80 °C for in vitro biochemical […]
assays at 0.5 mg/mL and 0.7 mg/mL, respectively, measured by UV absorbance with a NanoDrop […]
spectrophotometer (Thermo Scientific), using the calculated molecular weight and estimated extinction […]
Purified proteins were further analyzed by LC-ESI-MS in a XEVO G2 Sx Q-ToF (Waters). Expected intact […]
masses for LmxCLK1 (CQMED clone ID LmxCLK1-cb001) and NLuc-LmxCLK1 (CQMED clone ID LmxCLK1- […]
cb021) were: 48,791.14 Da and 68,411.71 Da, respectively.
We monitored the activity of recombinantly produced full-length LmxCLK1 (CQMED clone ID LmxCLK1- […]
cb001) using a commercially-available homogenous time-resolved fluorescence (HTRF)-based assay (HTRF […]
KinEASE-STK S3 kit, Cisbio - catalog #62ST3PEC). Assay development included establishing reaction […]
parameters (optimal enzyme concentration, ATP concentration and reaction time).
(15-point, 3-fold serial dilution and a highest final assay concentration of 10 µM) prior to transfer (100 nL) […]
to a black, 384-well, round bottom, low-volume plate (Corning catalog #4514) containing a mixture of […]
LmxCLK1 and peptide substrate in kinase buffer using an automated liquid transferring system (CYBIO […]
FeliX®, Analytik Jena, Jena, Germany). […]
started by the addition of ATP and allowed to proceed for 75 min at 30 °C. Final concentrations for reaction […]
components were: 6 nM LmxCLK1, 66 µM ATP (10× KM,ATP), 1 µM peptide (STK Substrate 3-biotin, Cisbio).
All components were prepared in 1× Enzymatic Buffer (Cisbio) supplemented with 5 mM MgCl2, 1 mM […]
DTT, 0.01% Tween-20. The reaction was stopped by the addition of Detection Buffer containing EDTA, […]
Fluorescence signal was measured using a CLARIOstar microplate reader (BMG LABTECH) with excitation […]
at 330 nm, emission at 665 nm (acceptor) and 620 nm (donor), integration delay 60 μs and integration […]
time 400 μs. All reactions were done in duplicate and two independent experiments were performed.
Enzyme activity was expressed as the background-corrected HTRF ratio of the acceptor and donor […]
emission signals according to equation [1]:
(also on this page, place not known: imi dazole. Ni -Sepharose background -corrected (665/620)=3Acceptor!!"#$ −backgroundD.10,000 Downloaded from http://pubs.acs.org/aidcbc/article-supplement/3662943/pdf/id5c00610_si_001/ by guest on 07 August 2026) […]
where background is the background fluorescence obtained in the absence of enzyme (blank).
To determine IC50 values, the background-corrected HTRF ratio was plotted as a function of test
A general note: In TR-FRET formats the signal depends on donor and acceptor labels being close together.

Assay [3] concerns the target T1, NLuc::LmxCLK1. The experiment in a line: cell-based. It is filed as cell-based. The method in brief: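 NanoBRET tracer displacement in live cells expressing NLuc-tagged CLK1, test compounds at 10 µM fixed, 1% DMSO final. Acceptor/donor emission (610/460 nm) ratio gives mBRET, converted to blank-corrected probe occupancy (%); probe KD from single-site saturation binding fits.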

In assay [4] the target is T1, NLuc::LmxCLK1. The experiment in a line: In-cell BRET target engagement in intracellular amastigotes expressing NLuc::LmxCLK1. Type of assay: cell-based. How it is done: as §2, §1

Bounds are passed on as bounds.

As for `Cc1ccc(C(=O)Nc2ccc(CN3CCN(CCCNC(=O)CCC4=[N+]5C(=Cc6ccc(-c7ccc[nH]7)n6[B-]5(F)F)C=C4)CC3)c(C(F)(F)F)c2)cc1C#Cc1cnc2[nH]ncc2c1` [SV363], the EC50 on NLuc::LmxCLK1 [1] is over 1 µM.

`CN[C@@H]1C[C@H]2O[C@@](C)([C@@H]1OC)n1c3ccccc3c3c4c(c5c6ccccc6n2c5c31)C(=O)NC4` [Staurosporine]: the EC50 in assay [2] came out at 0.9 µM. Half-maximal inhibition against LmxCLK1 (IC50) required 0.46 µM.

For the molecule `Cc1ccc(C(=O)Nc2ccc(CN3CCN(CCCNC(=O)c4ccc(C(=O)O)c(-c5c6ccc(=O)cc-6oc6cc(O)ccc56)c4)CC3)c(C(F)(F)F)c2)cc1C#Cc1cnc2[nH]ncc2c1` [SV366], the EC80 on NLuc::LmxCLK1 [3] (0.5 h, read-out: EC80 tracer titration in promastigotes) stood at 1.05 µM; at NLuc::LmxCLK1 [1] (0.5 h, read-out: EC80 tracer titration, purified NLuc-LmxCLK1), 0.0594 µM; at NLuc::LmxCLK1 [4] (0.5 h, read-out: EC80 tracer titration in intracellular amastigotes), 0.2 µM. Moreover, the EC50 came to 0.383 µM on NLuc::LmxCLK1 [3] (read-out: EC50 tracer titration in promastigotes, live promastigotes); 0.0084 µM at NLuc::LmxCLK1 [1] (read-out: EC50 tracer titration, purified NLuc::LmxCLK1, BRET probe binding); 0.0726 µM on NLuc::LmxCLK1 [4] (read-out: EC50 tracer titration in intracellular amastigotes, infected macrophages). Besides, on NLuc::LmxCLK1 [1] (saturation binding to purified NLuc::LmxCLK1), the Kd was 0.0059 µM. In addition, the “Lower EC50 in intracellular amastigotes compared to promastigotes” value at NLuc::LmxCLK1 [4] (tracer titration) is listed as “approximately 5 fold”.

A word on the IC50: it is the point on the concentration scale where inhibition reaches its midpoint. Low values mean higher potency, high ones lower potency. Usually Kd stands for the equilibrium constant for the complex coming apart.

(Values after PMC7619385 (ACS infectious diseases, 2025).)
